Data taken from patent publication US10793568B2, “Hormone receptor modulators for treating metabolic conditions and disorders” (ARDELYX, INC., priority 2016, dated 2020).
Like-named read-outs stand apart in the source and are kept apart here.

Tests used:
[1] = molecular target: ligand binding domain of human FXR (Homo sapiens (Human), UniProt Q96RI1); assay: FXR ligand binding assay (LanthaScreen TR-FRET, SRC2-2 peptide recruitment); settings: for pEC50: -log EC50, concentration required to produce 50% activation; for Emax: read-out: % Efficacy
[2] = molecular target: human Farnesoid X receptor ligand-binding domain/Gal4 DNA binding domain chimera (Homo sapiens (Human), UniProt Q96RI1); assay: Cell-based assay of FXR activation (FXR-UAS-bla HEK 293T beta-lactamase reporter); settings: cellular FXR beta-lactamase reporter assay; for Emax: HEK-293T, extent of activation relative to GW4064, read-out: % Efficacy; for EC50: FXR-UAS-bla HEK 293T cells, 16 h, pEC50 = -log EC50
Summary of the method: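 HEK 293T cells stably expressing a Gal4-fused human FXR LBD and a UAS-driven beta-lactamase reporter were incubated with serially diluted compounds for 16 h at 37 °C in phenol red-free DMEM with 2% charcoal-stripped FBS. CCF4 FRET read-out: excitation 409 nm, emission 447 nm. pEC50 comes from a 3-parameter logistic fit, and efficacy is given as % of GW4064.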

[3] = extent of activation relative to GW4064

Chain of ligand binding domain of human FXR (Q96RI1 262-486): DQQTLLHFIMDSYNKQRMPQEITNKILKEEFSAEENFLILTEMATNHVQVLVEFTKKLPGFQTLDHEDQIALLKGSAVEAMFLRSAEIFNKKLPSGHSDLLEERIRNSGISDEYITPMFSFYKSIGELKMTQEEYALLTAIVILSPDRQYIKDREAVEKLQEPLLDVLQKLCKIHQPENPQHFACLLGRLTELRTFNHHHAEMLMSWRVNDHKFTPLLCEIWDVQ
Chain of human Farnesoid X receptor ligand-binding domain/Gal4 DNA binding domain chimera (Q96RI1 262-486, change not shown): as the sequence (Q96RI1 262-486) above
Chain of human Farnesoid X receptor ligand-binding domain/Gal4 DNA binding domain chimera (P04386 1-147 partner): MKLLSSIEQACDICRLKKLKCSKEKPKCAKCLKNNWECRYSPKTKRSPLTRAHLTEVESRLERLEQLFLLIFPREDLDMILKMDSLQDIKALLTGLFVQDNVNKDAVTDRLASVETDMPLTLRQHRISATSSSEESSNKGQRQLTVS

SMILES | pEC50 [1] | Emax [1, 3] [%] | Emax [2] [%] | EC50 [2] [µM] | Emax [1] [%]
CS(=O)(=O)CCNC(=O)c1ccc(N2C[C@@H]3C[C@H]2C[C@H]3OCc2c(-c3c(Cl)cccc3Cl)noc2C2CC2)cc1 [Compound I-169, 4-[(1S,4S,5R)-5-{[5-cyclopropyl-3-(2,6-dichlorophenyl)-1,2-oxazol-4-yl]methoxy}-2-azabicyclo[2.2.1]heptan-2-yl]-N-(2-methanesulfonylethyl)benzamide] | 8.4 | 160 | 106 | 0.00158 | –
CS(=O)(=O)CCNC(=O)c1ccc(N2C[C@@H]3C[C@H]2C[C@H]3OCc2c(-c3c(Cl)cccc3Cl)noc2C2CC2)cc1F [Compound I-170, 4-[(1S,4S,5R)-5-{[5-cyclopropyl-3-(2,6-dichlorophenyl)-1,2-oxazol-4-yl]methoxy}-2-azabicyclo[2.2.1]heptan-2-yl]-2-fluoro-N-(2-methanesulfonylethyl)benzamide] | 9.4 | 142 | 103 | 0.00126 | –
O=C(NCCS(=O)(=O)C1CC1)c1ccc(N2C[C@@H]3C[C@H]2C[C@H]3OCc2c(-c3c(Cl)cccc3Cl)noc2C2CC2)cc1F [Compound I-171, N-[2-(cyclopropanesulfonyl)ethyl]-4-[(1S,4S,5R)-5-{[5-cyclopropyl-3-(2,6-dichlorophenyl)-1,2-oxazol-4-yl]methoxy}-2-azabicyclo[2.2.1]heptan-2-yl]-2-fluorobenzamide] | 8.6 | 147 | 104 | 0.000794 | –
O=C(NCCS(=O)(=O)C1CCOCC1)c1ccc(N2C[C@@H]3C[C@H]2C[C@H]3OCc2c(-c3c(Cl)cccc3Cl)noc2C2CC2)cc1F [Compound I-172, 4-[(1S,4S,5R)-5-{[5-cyclopropyl-3-(2,6-dichlorophenyl)-1,2-oxazol-4-yl]methoxy}-2-azabicyclo[2.2.1]heptan-2-yl]-2-fluoro-N-[2-(oxane-4-sulfonyl)ethyl]benzamide] | 8.4 | 160 | 110 | 0.001 | –
Cc1cc(C(=O)NCCP(=O)(O)O)ccc1N1C[C@@H]2C[C@H]1C[C@H]2OCc1c(-c2c(Cl)cccc2Cl)noc1C1CC1 [Compound I-173, [2-({4-[(1S,4S,5R)-5-{[5-cyclopropyl-3-(2,6-dichlorophenyl)-1,2-oxazol-4-yl]methoxy}-2-azabicyclo[2.2.1]heptan-2-yl]-3-methylphenyl}formamido)ethyl]phosphonic Acid] | 9.2 | – | 114 | 0.1 | 144
Cc1cc(C(=O)NCCP(=O)(OCOC(=O)C(C)(C)C)OCOC(=O)C(C)(C)C)ccc1N1C[C@@H]2C[C@H]1C[C@H]2OCc1c(-c2c(Cl)cccc2Cl)noc1C1CC1 [Compound I-174, ({[2-({4-[(1S,4S,5R)-5-{[5-cyclopropyl-3-(2,6-dichlorophenyl)-1,2-oxazol-4-yl]methoxy}-2-azabicyclo[2.2.1]heptan-2-yl]-3-methylphenyl}formamido)ethyl]({[(2,2-dimethylpropanoyl)oxy]methoxy})phosphoryl}oxy)methyl 2,2-dimethylpropanoate] | 8.8 | 161 | 152 | 0.251 | –
O=P(O)(O)CCc1ccc(N2C[C@@H]3C[C@H]2C[C@H]3OCc2c(-c3c(Cl)cccc3Cl)noc2C2CC2)cc1 [Compound I-175, (2-{4-[(1S,4S,5R)-5-{[5-cyclopropyl-3-(2,6-dichlorophenyl)-1,2-oxazol-4-yl]methoxy}-2-azabicyclo[2.2.1]heptan-2-yl]phenyl}ethyl)phosphonic Acid] | 8.2 | – | 101 | 0.631 | 120
O=P(O)(O)Cc1ccc(N2C[C@@H]3C[C@H]2C[C@H]3OCc2c(-c3c(Cl)cccc3Cl)noc2C2CC2)cc1 [Compound I-176, ({4-[(1S,4S,5R)-5-{[5-cyclopropyl-3-(2,6-dichlorophenyl)-1,2-oxazol-4-yl]methoxy}-2-azabicyclo[2.2.1]heptan-2-yl]phenyl}methyl)phosphonic Acid] | 7.5 | – | 92 | 0.631 | 120
